Read-outs that look alike come from different tables or passages of the source. Blank lines part the entries; values can stand above or below the compound they belong to.
Experiments:
[1] = target: T1, dihydropyrimidine dehydrogenase (DPD) (Homo sapiens, UniProt Q12882); conditions: cited from earlier work
T1 sequence (Q12882 4-1025): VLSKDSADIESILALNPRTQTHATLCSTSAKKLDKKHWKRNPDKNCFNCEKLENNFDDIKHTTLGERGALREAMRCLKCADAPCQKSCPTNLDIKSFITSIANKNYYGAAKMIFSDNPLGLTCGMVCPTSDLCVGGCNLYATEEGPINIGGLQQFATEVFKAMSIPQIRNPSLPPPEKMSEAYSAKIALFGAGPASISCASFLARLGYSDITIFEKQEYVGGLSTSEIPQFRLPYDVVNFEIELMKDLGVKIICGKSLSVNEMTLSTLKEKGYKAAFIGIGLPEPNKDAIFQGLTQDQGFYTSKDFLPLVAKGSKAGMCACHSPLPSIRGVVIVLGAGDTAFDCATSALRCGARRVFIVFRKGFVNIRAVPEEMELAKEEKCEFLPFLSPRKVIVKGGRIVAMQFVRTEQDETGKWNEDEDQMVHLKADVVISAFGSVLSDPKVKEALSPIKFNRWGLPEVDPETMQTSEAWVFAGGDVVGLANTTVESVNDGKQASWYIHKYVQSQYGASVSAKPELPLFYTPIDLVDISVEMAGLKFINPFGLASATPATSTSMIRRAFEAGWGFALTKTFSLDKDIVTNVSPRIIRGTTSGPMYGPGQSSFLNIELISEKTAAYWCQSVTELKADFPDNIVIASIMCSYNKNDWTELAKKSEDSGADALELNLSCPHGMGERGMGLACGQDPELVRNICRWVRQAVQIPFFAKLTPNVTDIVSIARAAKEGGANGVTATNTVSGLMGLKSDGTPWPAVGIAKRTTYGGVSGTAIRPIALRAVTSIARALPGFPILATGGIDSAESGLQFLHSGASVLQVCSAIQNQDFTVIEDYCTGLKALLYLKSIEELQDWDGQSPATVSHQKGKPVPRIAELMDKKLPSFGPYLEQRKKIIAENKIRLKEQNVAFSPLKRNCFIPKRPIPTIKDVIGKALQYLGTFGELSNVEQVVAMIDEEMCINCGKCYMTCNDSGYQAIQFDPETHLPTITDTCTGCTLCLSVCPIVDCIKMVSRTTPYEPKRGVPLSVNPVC

[2] = human, in vivo
Description: 40 mg of PCS6422 was administered to the subjects on both of day 1 and day 5 (Cohort 2B) or on only day 1 (Cohort 2D). Subsequently, 75 mg of capecitabine was administered to the subjects twice daily (morning and night) on days 2-8 followed by 6 days of a drug-free period (days 9-14).
Blood samples for PK analysis of PCS6422 and its major metabolite, 5-acetyluracil in Cycle 1 on Day 1 was drawn at 0 (pre-dose), 1, 2, 3, 5, 7, 9 and 24 hours. The 24-hour post dose sample was collected prior to capecitabine administration on Day 2.
On the first day of capecitabine treatment (Cycle 1, Day 2), blood samples for PK analysis of capecitabine, 5-fluorouracil (5-FU), and the quantifiable main metabolites, α-fluoro-β-alanine (FBAL), 5′-deoxy-5-fluorocytidine (5′-DFCR), and doxifluridine (5′-DFUR) were obtained at the following time points relative to administration of the first dose of capecitabine […]: 0 (pre-dose), 0.5, 1, 2, 3, 5, 7, and 9 hours. In Cycle 1 on Day 8, blood samples were obtained at the following time points relative to administration of the morning dose of capecitabine at time 0 (pre-dose/trough), 0.5, 1, 2, 3, 5, 7, and 9 hours.
Additional PK blood samples for capecitabine and its main metabolites were obtained prior to administration of the morning dose of capecitabine on Days 3, 4, 5, 6, 7, 9. Validated analytical methods were used to determine the concentrations of PCS6422, 5-aceyluracil, capecitabine, 5-FU, FBAL, 5′-DFCR, and 5′-DFUR in plasma.

[3] = human, in vivo; remark: listed apart in the source
Description: 40 mg of PCS6422 is administered to the subjects on day 1. Subsequently, 75 mg of capecitabine is administered to the subjects daily (Cohort 1) or twice daily (Cohort 2A, morning and night) on days 2-8 followed by 6 days of a drug-free period (days 9-14).
Blood samples for pharmacokinetic (PK) analysis of PCS6422 and its major metabolite, 5-acetyluracil, are drawn in cycle 1 on day 1 at 0 (pre-dose), 1, 2, 3, 5, 7, 9, and 24 hours post PCS6422 administration. On the first day of capecitabine treatment (Cycle 1, day 2), blood samples for PK analysis of capecitabine, 5-fluorouracil (5-FU), and the quantifiable main metabolites, α-fluoro-β-alanine (FBAL), 5′-deoxy-5-fluorocytidine (5′-DFCR), and doxifluridine (5′-DFUR) are obtained at the following time points relative to administration of the first dose of capecitabine (dose 1): 0 (pre-dose/trough), 0.5, 1, 2, 3, 5, 7, and at 9 hours. In cycle 1 on Day 8, blood samples are obtained at the following time points relative to administration of the dose of capecitabine (dose 7 of cycle 1): 0 (pre-dose/trough), 0.5, 1, 2, 3, 5, 7, 9, 24, 30, and 48 hours post-capecitabine dose. A capecitabine blood sample is also drawn on cycle 2, day 1, prior to the dose of PCS6422.
Blood samples are also drawn for the analysis of DPD activity using uracil and dihydrouracil concentrations at screening and at the following times during Cycle 1: Day 1, Day 2, Day 8, Day 9, and Day 10. A blood sample is also drawn on Cycle 2, day 1 prior to the dose of PCS6422. All blood samples for analysis of uracil and dihydrouracil concentrations are taken prior a subject's meal, if possible. Actual sample time is recorded. Validated analytical methods are used to determine the concentrations of PCS6422, 5-acetyluracil, capecitabine, 5-FU, FBAL, 5′-DFCR, and 5′-DFUR, uracil, and/or dihydrouracil in plasma.

[4] = laboratory animals; cited from earlier work
[5] = target: T1, dihydropyrimidine dehydrogenase (DPD); conditions: background statement; cited from earlier work

highest 5-FU plasma concentration (Cp high) during 0-9 hours following capecitabine dosing [2]: 197 to 746 ng/mL
lowest 5-FU plasma concentration (Cp low) during 0-9 hours following capecitabine dosing [2]: 6.4 to 283 ng/mL
5FU D 9 ([2]; 168 h): <2 ng/mL
5FU D 8 0-9 hrs Cp Low [3]: <2 ng/mL
5FU D 8 Cmin [3]: <2 ng/mL
5FU D 9 [3]: <2 ng/mL
highest 5-FU plasma concentration (Cp high) during 0-9 hours following capecitabine dosing [3]: 309 to 466 ng/mL
lowest 5-FU plasma concentration (Cp low) during 0-9 hours following capecitabine dosing [3]: 8.1 to 164 ng/mL
Compound: O=c1[nH]cc(F)c(=O)[nH]1 [5-FU, 5-fluorouracil]
fraction of administered 5-FU catabolized by DPD ([1]; background statement): over 80%
5-FU elimination half-life ([1]; with DPD inhibited by PCS6422): several hours
5-FU elimination half-life ([1]; without PCS6422): 10 to 20 min

Compound: NCC(F)C(=O)O (stereo not drawn) [FBAL, α-fluoro-β-alanine]
FBAL Cp high on Day 2 (0-9 hours post capecitabine dose) [2]: 15 to 33.1 ng/mL
effect on anti-tumor activity of 5-FU [4]: decrease the anti-tumor activity of 5-FU
FBAL Cp high on Day 2 (0-9 hours post capecitabine dose) [3]: 15 to 26 ng/mL
FBAL Cp low on Day 2 (0-9 hours post capecitabine dose) [3]: 15 to 22.6 ng/mL

Compound: C#Cc1c[nH]c(=O)[nH]c1=O [PCS6422, 5-ethynyl-1H-pyrimidine-2,4-dione]
inactivation of DPD [5]: potent and irreversible inactivator

Reference: US20250017931A1, “METHODS OF PERSONALIZING CANCER TREATMENT” (PROCESSA PHARMACEUTICALS, INC.,, priority 2023, published 2025)
